These results are taken from patent US8329413B2, “Glycoproteomic probes for fluorescent imaging of fucosylated glycans in vivo” (Academia Sinica, priority 2007, dated 2012).

For data set [1] the following is noted: cited from earlier work.
Data set [2] concerns human alpha1-acid glycoprotein (AGP). Nature of the data set: Fluorescent labeling of AGP fucosylated by FucT V, SDS/PAGE visualized by UV light. It counts as biochemical. The note with it: AGP fucosylated with FucT V and GDP-fucose analog 8, 9 or 10, then labeled with 1a or 1b. From the text: Briefly, fucose analogs 4 and 5 are converted to the corresponding 1-bromides, which then are substituted directly by a phosphate group. […] Therefore, TiBr4 is used instead, as described by Srivastava. The fucose-1-phosphates are converted to the corresponding GDP-fucose analogs by using 1H-tetrazole as a catalyst. The tolerability of GDP-fucose analogs 8 and 9 for human alpha-1,3-fucosyltranseferases (FucTs) II-VII is confirmed by using a standard microtiter plate assay. They are then used to elaborate the glycoconjugate substrate, human alpha1-acid glycoprotein (AGP), an acute-phase protein. As fucosylation of AGP is associated with inflammatory diseases, the degree of fucosylation of AGP could be a potential diagnostic or prognostic marker. AGP was fucosylated by using FucT V in the presence of GDP-fucose analogs 8 or 9. After gel filtration, the fucosylated AGP is labeled by using the corresponding naphthalimide 1a or 1b for 4 h at room temperature. Labeled protein is analyzed by SDS/PAGE and visualized by UV light (365 nm). […] Treated protein was separated by SDS/PAGE and visualized by UV light (Top) and Coomassie blue staining (CBB) (Middle). (Bottom) Modified GDP-fucose.
Human alpha1-acid glycoprotein (0.33 mg/mL), pretreated with alpha-fucosidase, was incubated with human alpha-1,3-fucosyltransferase V (100 mU/mL) in MOPS buffer (50 mM, pH 7.2) containing 150 mM NaCl, 10 mM MnCl2, 4 mM ATP, 0.2 mM GDP-fucose analog (8-10). After incubation at 37° C. for 8 h, additional GDP-fucose derivative (final 0.4 mM) was added and the reaction mixture was incubated at 37° C. for 12 h. […]
The fucosylated glycoconjugate was dissolved in HEPES buffer (50 mM, pH 7.6), and added to a solution containing CuSO4 (0.2 mM), 1.0 mM sodium ascorbate, the tris(triazolyl)amine ligand (20) (0.2 mM, stock in DMSO), and the appropriate naphthalimide ligation probe 1a or 1b (0.1 mM, stock in DMSO, final concentration of DMSO; 10%)). After 1 h at room temperature, the mixture was passed through NAP-5 column in water and lyophilized, and analyzed by SDS-PAGE.

Data set [3] has as its system Jurkat cells. As to the kind of experiment: Fluorescent labeling at the cell surface by flow cytometry. The class given is cell-based. From the text:
In another aspect, the disclosure provides a method of labeling of azide-tagged glycoconjugates expressed on the cell surface by using the alkyne click-activated fluorogenic probe 1a. First, the effect of various Cu(I) sources on the copper-catalyzed cell-surface labeling reaction was investigated. Cu(I) is typically generated including in situ by the reduction of Cu(II) by conventional reducing agents or the direct addition of Cu(I) as a salt. To label azido tagged glycoconjugates (in this case, cellular glycans that had incorporated azidofucose), we investigated both methods by using in situ Cu(II) reduction with ascorbic acid and Tris(carboxyethyl)phosphine (TCEP) and direct addition of Cu(I), via CuBr, in CuAAC reactions. Jurkat cells were cultured in the presence of globally acetylated 6-azido-L-fucose 12 (acetylation increases cellular uptake of the sugar) so that they will incorporate the analog via the salvage pathway. After incubating for 3 days, the cells were labeled with 1a in the presence of the above listed Cu(I) sources, and the fluorescent intensities were measured by flow cytometry. […]
Jurkat cells were cultured in RPMI medium 1640 (Invitrogen, Carlsbad, Calif.), supplemented with 10% FCS and peracetylated fucose 11 or azidofucose 12 (200 μM) at a density of 2×10^5 cells per ml for 3 days, in the presence or absence of tunicamycin (5 μg/ml). […] The fluorescence intensity was detected and acquired by BD LSR II (BD Biosciences, San Jose, Calif.) and FACSDiva software (BD Biosciences). […] For detection of the fluorescent adduct with probe 1a, a 351-nm UV laser was used for excitation, and emission was detected by a 440/40 band-pass filter.
Jurkat cells were cultured in RPMI 1640 (Invitrogen, Carlsbad, Calif.) supplemented with 10% FCS and peracetylated fucose 11 or azidofucose 12 ([…]) at the density of 2×10^5 cells/mL for 3 days, in the presence or absence of tunicamycin ([…]). […] The fluorescence intensity was detected and acquired by BD LSR II (BD Biosciences, San Jose, Calif.) and FACSDiva software (BD Biosciences). […]
On the technique in general: In flow cytometry, cells or beads pass a laser one at a time.

Data set [4] concerns Hep 3B. As to the kind of experiment: Fluorescence microscopy imaging of intracellular fucosylated glycoconjugates. It counts as cell-based, human. As to the method:
The human hepatoma cell line, Hep 3B, was incubated with acetylated azidofucose 12. After 3 days, the cells were fixed, washed with PBS, and then stained with 1a for visualization. […] The labeling reaction was performed in the presence of Cu(I) after the treatment with control fucose (A) or azidofucose 12 (B), or in the absence of Cu(I) after the treatment with control fucose (C) or azidofucose 12 (D). (Scale bar: 20 μm.)
In another aspect of the disclosure, double-staining experiments were performed to find out whether the punctate pattern observed from azidofucose marks specific cellular compartments. […] Azidofucose treated cells were fixed and labeled with probe 1a and then further treated with WGA lectin conjugated with Alexa Fluor 594, and the cells were imaged with confocal fluorescence microscope, using the appropriate filter sets. […] (Scale bar: 20 μm.)
The human hepatocellular carcinoma cell line, Hep3B (American Type Culture Collection, Manassas, Va.), was cultured in Opti-MEM (Invitrogen) supplemented with 0.1% FCS and treated with natural fucose or peracetylated azidofucose 12 (200 μM) for 3 days. The cells then were transferred to a coverslip glass slide and cultured overnight in the same medium. […] After labeling, cells were washed with PBS, and fluorescence images were obtained by using Axiovert 200M (Carl Zeiss, Inc., Thornwood, N.Y.). […]

A short description of data set [5]: Rapid screening of L-amino acids as cycloaddition ligand catalysts using fluorogenic probe 1a. The settings on record: L-amino acid 1.0 mM, CuSO4 1.0 mM, 1a + 2a; for enhancement of cycloaddition rates: 24 h room temperature. On the procedure: A fluorescence quenching technique was used to identify catalysts for the copper-catalyzed cycloaddition. […] In such a screen, the reaction between 1a and 2a is performed in microtiter plates in the presence of individual amino acids. […] (Upper) The microtiter plate was visualized under long wavelength UV lamp (365 nm). (Lower) The fluorescent intensities of each well are measured by a fluorescence plate reader.
The effect of the ligand effect on the reaction rate was visualized by holding the 96-well microtiter plate under a long wavelength UV lamp (365 nm) and analyzed with a standard fluorescence multiplate reader.
The overall volume in each vial was 250 microliters containing a solution of 1,8-naphthalimide 1a (0.5 mM), azidofucose 2a (1.0 mM), CuSO4 (1.0 mM), L-amino acid (1.0 mM) and sodium ascorbate (5.0 mM) in DMSO/water (56% DMSO). The reactions were allowed to stand at room temperature for 24 hours. The reaction mixture was diluted 60 times with 50 mM HEPES buffer (pH 7.2) and then transferred to 96-well microtiter plate, and fluorescence intensity (excitation, 365 nm; emission, […]) was determined with a Fusion plate reader (Perkin Elmer/Packard).

Counter-ions that a name gives are not always drawn.

For the compound `Nc1ccc2c3c(cccc13)C(=O)NC2=O` [4-amino-1,8-naphthalimide], the “emission λmax” value in data set [1] (long wavelength emission, basis of probe design) is 540-550 nm. For `C#Cc1ccc2c3c(cccc13)C(=O)N(CC)C2=O` [Compound 1a, 4-Ethynyl-N-ethyl-1,8-naphthalimide], the “fluorescent band of labeled AGP on SDS/PAGE under UV light (365 nm)” value in data set [2] is listed as “clear fluorescent bands”.

As for `C[C@@H]1O[C@H](OP(=O)(O)OP(=O)(O)OC[C@H]2O[C@@H](n3cnc4c(=O)[nH]c(N)nc43)[C@H](O)[C@@H]2O)[C@@H](O)[C@H](O)[C@@H]1O` [Compound 10, GDP-fucose], in data set [2], the “fluorescent band of labeled AGP on SDS/PAGE under UV light (365 nm)” value is recorded as “No band was present”.

Turning to `CC(=O)OC1O[C@@H](CN=[N+]=[N-])[C@@H](OC(C)=O)[C@@H](OC(C)=O)[C@@H]1OC(C)=O` (some centres unmarked) [Compound 12], the “cell fluorescence after CuAAC labeling with 1a vs natural fucose” value in data set [3] (Jurkat cells, 3 days, all three copper sources, flow cytometry) is “distinct increase in fluorescence”. Moreover, the “fluorescent signal after labeling with biotinylated alkyne 13 and avidin-fluorescein vs fucose” value in data set [3] (Jurkat cells, flow cytometry) is reported as “distinct increase in fluorescent signal”. Moreover, the “labeling pattern after staining with 1a vs control fucose” value in data set [4] (Hep 3B, 3 days, fixed cells, Cu(I)) is reported as “distinct punctate-labeling pattern”. In data set [4] (fixed cells labeled with probe 1a, confocal microscopy), the “co-localization with Alexa Fluor 594-conjugated WGA lectin (Golgi marker)” value is “overlapped perfectly”. Consider `C=C[C@H]1C[N@@]2CC[C@H]1C[C@H]2[C@H](O)c1ccnc2ccc(OC)cc12` [Quinine sulfate], for which, in data set [1] (standard value), the “quantum yield of fluorescent standard” value is listed as 0.54. For the compound `N[C@@H](CS)C(=O)O` [cysteine], in data set [5], the “effect on cycloaddition reaction” value is on record as “obstructive to the reaction”. On the same count and under the same terms, the same measure for `N[C@@H](CCC(=O)O)C(=O)O` [glutamic acid]: “obstructive to the reaction”. Same read-out and setting: then `NCCCC[C@H](N)C(=O)O` [lysine], with “obstructive to the reaction”. In the case of `N[C@@H](Cc1c[nH]c2ccccc12)C(=O)O` [tryptophan], in data set [5], the “enhancement of cycloaddition rates” value is “approximately 2 fold”.

For `N[C@@H](Cc1ccc(O)cc1)C(=O)O` [tyrosine], the “enhancement of cycloaddition rates” value in data set [5] is on record as “approximately 2 fold”. For tunicamycin, in data set [3] (Jurkat cells co-treated with azidofucose, labeled with 1a), the “effect on cell surface fluorescence” value is “suppressed cell surface fluorescence”.
